pEC50, pIC50: −log10 of the molar value.
What was measured:
[1] = target: IRAK4 (Homo sapiens (Human), UniProt Q9NWZ3); assay: IRAK4 Biochemical Assay (TR-FRET/HTRF); details: IRAK4 enzyme 0.75 nM, 500 μM ATP, 2 μM STK1 peptide, 120 min
Experimental: IRAK4 Biochemical Assay Procedure:
IRAK4 enzyme (Carna Biosciences, Chuo-ku, Kobe, Japan) activity was measured by detecting phosphorylated peptide substrate formation using an antibody against the phosphorylated peptide substrate. This is a time-resolved fluorescence resonance energy transfer (TR-FRET) immunoassay, based on the STK1 KinEASE Assay (Cisbio, Bedford, Mass.). The assay was designed as a simple two-step, endpoint assay (a 5 μl enzyme reaction followed by 5 μl stop and detect Solution) performed in ProxiPlate-384 Plus plates (Perkin Elmer, Waltham, Mass.). Staurosporine, a non-selective kinase inhibitor was used as a positive control. Compounds diluted in DMSO were spotted into 384 well plates using a Labcyte® Echo 550 Liquid Handling System prior to addition of IRAK4 enzyme and peptide substrate. Reaction solutions were delivered using a Multi-Flo (Bio-Tek Instruments). The enzyme and peptide solution was incubated with compound for 15 minutes at room temp before the reaction was initiated by the addition of ATP. The standard 5 μl reaction mixture contained 500 μM ATP, 2 μM peptide (STK1 Peptide), 0.75 nM of IRAK4 in reaction buffer (50 mM HEPES, pH 7.0, 0.02% NaN3, 0.01% BSA, 0.1 mM Orthovanadate, 5 mM MgCl2, 0.025% NP-40, 1 mM DTT). After 120 min of incubation at room temperature, 5 μl of Stop and Detect Solution (1:100 Cryptate labeled anti-phosphorylated peptide antibody solution and 125 nM Tracer in a 50 mM HEPES pH 7.0 detection buffer containing sufficient EDTA) was added. The plate was then further incubated for 60 minutes at room temperature and read on Envision 2103 Multilabeled reader (PerkinElmer) with excitation/emission/FRET emission at 340 nm/615 nm/665 nm, respectively. Fluorescence intensities at 615 nm and 665 nm emission wavelengths were expressed as a ratio (665 nm/615 nm). Percentage of inhibition was calculated as below: % Inhibition=100×(RatioSample−Ratio0% Inhibition)/(Ratio100% Inhibition−Ratio0% Inhibition)
The 0% inhibition value comes from control wells lacking inhibitor. The 100% inhibition value comes from control wells containing a saturating amount of known inhibitor staurosporine.

[2] = test system: TNFα; assay: IRAK4 Monocyte TNFα Cell Based Assay; details: Monocyte; cryopreserved human monocytes, 50 pg/ml LPS, compound 1 hour pre-treatment, 4 hours stimulation, TNFα by TR-FRET
Experimental: IRAK4 Monocyte TNFα Cell Based Assay Procedure:
The cell suspension was then plated at a density of 5,000 cells/well onto black 384 well Greiner clear bottom plates. Plates were pre-spotted with test compounds and serially diluted in DMSO where 40 nL/well were delivered using the Echo 550 acoustic liquid dispenser (Labcyte®) for a final DMSO concentration of 0.1%. Plated cells were treated with compound for 1 hour at 37° C. Cells were then stimulated with 50 pg/ml of LPS (Sigma) excluding outside columns of plate used for unstimulated cell control wells. Cells were incubated for an additional 4 hours at 37° C. Cells were then spun out of the media and 5 μl of sample were taken and analyzed for total TNFα content using the TR-FRET Human TNFα detection system (CisBio). This system utilizes two labeled antibodies (cryptate and XL665) that bind to two different epitopes of the TNFα molecule and produce FRET signal proportional to the concentration of TNFα in the sample. Detection antibodies are mixed 50:50 and 5 μL were dispensed into each well. Plates were covered with clear seals and incubated at room temp overnight. The following morning plates were read using an Envision 2103 Multilabeled reader (PerkinElmer) with excitation/emission/FRET emission at 340 nm/615 nm/665 nm, respectively. Fluorescence intensities at 615 nm and 665 nm emission wavelengths were expressed as a ratio (665 nm/615 nm). Percent of control was calculated as follows: % Control=100×(RatioSample−Ratio0% Stimulation)/(Ratio100% Stimulation−Ratio0% Stimulation)
where unstimulated cells (0% stimulation) were the negative control and stimulated cells (100% stimulation) were used as the positive control.

Chain of IRAK4 (Q9NWZ3 whole entry): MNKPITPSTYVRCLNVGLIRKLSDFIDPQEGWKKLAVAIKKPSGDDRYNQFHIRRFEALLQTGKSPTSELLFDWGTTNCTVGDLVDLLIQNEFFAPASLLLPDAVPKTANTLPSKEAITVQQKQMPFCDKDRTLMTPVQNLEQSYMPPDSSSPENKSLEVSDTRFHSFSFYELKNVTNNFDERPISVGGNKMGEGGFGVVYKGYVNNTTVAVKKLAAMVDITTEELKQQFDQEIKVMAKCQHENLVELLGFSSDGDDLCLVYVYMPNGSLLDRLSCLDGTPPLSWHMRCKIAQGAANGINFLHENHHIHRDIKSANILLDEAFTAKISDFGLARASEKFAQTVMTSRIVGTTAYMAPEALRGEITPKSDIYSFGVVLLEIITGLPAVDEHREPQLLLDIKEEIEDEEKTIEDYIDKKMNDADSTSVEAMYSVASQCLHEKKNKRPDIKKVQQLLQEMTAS

`CC(C)(O)[C@H](F)CNC(=O)c1cnc(-c2ccc3cc(C#N)cnn23)cc1N[C@H]1CC[C@H](c2cnn(CC3CC3)c2)CC1` [Compound 13, 6-(3-cyanopyrrolo[1,2-b]pyridazin-7-yl)-4-(((1r,4R)-4-(1-(cyclopropylmethyl)-1H-pyrazol-4-yl)cyclohexyl)amino)-N-((R)-2-fluoro-3-hydroxy-3-methylbutyl)nicotinamide] showed a pIC50 [1] of 8.70 and a pEC50 [2] of 6.77.
Work on `CC(C)(O)[C@H](F)CNC(=O)c1cnc(-c2ccc3cc(C#N)cnn23)cc1N[C@H]1CC[C@@H](c2cc[nH]n2)CC1` [Compound 71, 4-(((1s,4S)-4-(1H-pyrazol-3-yl)cyclohexyl)amino)-6-(3-cyanopyrrolo[1,2-b]pyridazin-7-yl)-N-((R)-2-fluoro-3-hydroxy-3-methylbutyl)nicotinamide] yielded a pIC50 [1] of 8.50.
For `CC(C)(O)[C@H](F)CNC(=O)c1cnc(-c2ccc3cc(C#N)cnn23)cc1N[C@H]1CC[C@H](c2nnc(C(F)F)s2)CC1` [Compound 53, 6-(3-cyanopyrrolo[1,2-b]pyridazin-7-yl)-4-(((1r,4R)-4-(5-(difluoromethyl)-1,3,4-thiadiazol-2-yl)cyclohexyl)amino)-N-((R)-2-fluoro-3-hydroxy-3-methylbutyl)nicotinamide], the pIC50 [1] was > 9.00 and the pEC50 [2] was 7.57.
`CC(C)(O)[C@H](F)CNC(=O)c1cnc(-c2ccc3cc(C#N)cnn23)cc1N[C@H]1CC[C@H](n2cc(C(F)(F)F)cn2)CC1` [Compound 30, 6-(3-cyanopyrrolo[1,2-b]pyridazin-7-yl)-N-((R)-2-fluoro-3-hydroxy-3-methylbutyl)-4-(((1r,4R)-4-(4-(trifluoromethyl)-1H-pyrazol-1-yl)cyclohexyl)amino)nicotinamide] showed a pIC50 [1] of 8.40 and a pEC50 [2] of 6.87.
With `CC(C)(O)[C@H](F)CNC(=O)c1cnc(-c2ccc3cc(C#N)cnn23)cc1N[C@H]1CC[C@H](c2ccccn2)CC1` [Compound 54, 6-(3-cyanopyrrolo[1,2-b]pyridazin-7-yl)-N-((R)-2-fluoro-3-hydroxy-3-methylbutyl)-4-(((1r,4R)-4-(pyridin-2-yl)cyclohexyl)amino)nicotinamide] the pIC50 [1] was > 9.00 and the pEC50 [2] was 7.74.
With `CC(C)(O)[C@H](F)CNC(=O)c1cnc(-c2ccc3cc(C#N)cnn23)cc1N[C@H]1CC[C@H](n2cnc(C(F)F)n2)CC1` [Compound 36, 6-(3-cyanopyrrolo[1,2-b]pyridazin-7-yl)-4-(((1r,4R)-4-(3-(difluoromethyl)-1H-1,2,4-triazol-1-yl)cyclohexyl)amino)-N-((R)-2-fluoro-3-hydroxy-3-methylbutyl)nicotinamide] the pIC50 [1] was > 9.00 and the pEC50 [2] was 7.85.
For `Cc1ncoc1[C@@H]1CCC[C@@H](Nc2cc(-c3ccc4cc(C#N)cnn34)ncc2C(=O)NC[C@@H](F)C(C)(C)O)C1` [Compound 48, 6-(3-cyanopyrrolo[1,2-b]pyridazin-7-yl)-N-((R)-2-fluoro-3-hydroxy-3-methylbutyl)-4-(((1R,3R)-3-(4-methyloxazol-5-yl)cyclohexyl)amino)nicotinamide], the pIC50 [1] was 8.00 and the pEC50 [2] was 5.98.
`Cn1nnc([C@H]2CC[C@H](Nc3cc(-c4ccc5cc(C#N)cnn45)ncc3C(=O)NC[C@@H](F)C(C)(C)O)CC2)n1` [Compound 15, 6-(3-cyanopyrrolo[1,2-b]pyridazin-7-yl)-N-((R)-2-fluoro-3-hydroxy-3-methylbutyl)-4-(((1r,4R)-4-(2-methyl-2H-tetrazol-5-yl)cyclohexyl)amino)nicotinamide] was tested, and the pIC50 [1] was > 9.00 and the pEC50 [2] was 7.46.
With `CC(C)(O)[C@H](F)CNC(=O)c1cnc(-c2ccc3cc(C#N)cnn23)cc1N[C@@H]1CC[C@@H](c2nnc(C(F)F)o2)OC1` [Compound 63, 6-(3-cyanopyrrolo[1,2-b]pyridazin-7-yl)-4-(((3R,6S)-6-(5-(difluoromethyl)-1,3,4-oxadiazol-2-yl)tetrahydro-2H-pyran-3-yl)amino)-N-((R)-2-fluoro-3-hydroxy-3-methylbutyl)nicotinamide] the pIC50 [1] was > 9.00 and the pEC50 [2] was 7.41.
In the case of `Cc1ncc(C2CCC(Nc3cc(-c4ccc5cc(C#N)cnn45)ncc3C(=O)NC[C@@H](F)C(C)(C)O)CC2)cn1` (stereo partly drawn) [Compound 58, (R)-6-(3-cyanopyrrolo[1,2-b]pyridazin-7-yl)-N-(2-fluoro-3-hydroxy-3-methylbutyl)-4-((4-(2-methylpyrimidin-5-yl)cyclohexyl)amino)nicotinamide], the pIC50 [1] was 8.40 and the pEC50 [2] was 6.95.
For `CC(C)(O)[C@H](F)CNC(=O)c1cnc(-c2ccc3cc(C#N)cnn23)cc1NC1CCC(F)(c2nnc(C(F)F)o2)CC1` (stereo partly drawn) [Compound 43, (R)-6-(3-cyanopyrrolo[1,2-b]pyridazin-7-yl)-4-((4-(5-(difluoromethyl)-1,3,4-oxadiazol-2-yl)-4-fluorocyclohexyl)amino)-N-(2-fluoro-3-hydroxy-3-methylbutyl)nicotinamide], the pIC50 [1] was > 9.00 and the pEC50 [2] was 7.41.
`CC(C)(O)[C@H](F)CNC(=O)c1cnc(-c2ccc3cc(C#N)cnn23)cc1N[C@H]1CC[C@H](c2cn(C(F)F)nn2)CC1` [Compound 18, 6-(3-cyanopyrrolo[1,2-b]pyridazin-7-yl)-4-(((1r,4R)-4-(1-(difluoromethyl)-1H-1,2,3-triazol-4-yl)cyclohexyl)amino)-N-((R)-2-fluoro-3-hydroxy-3-methylbutyl)nicotinamide] gave a pIC50 [1] of 9.00 and a pEC50 [2] of 7.57.
Compound `Cc1nnc([C@H]2CC[C@H](Nc3cc(-c4ccc5cc(C#N)cnn45)ncc3C(=O)NC[C@@H](F)C(C)(C)O)CC2)s1` [Compound 52, 6-(3-cyanopyrrolo[1,2-b]pyridazin-7-yl)-N-((R)-2-fluoro-3-hydroxy-3-methylbutyl)-4-(((1r,4R)-4-(5-methyl-1,3,4-thiadiazol-2-yl)cyclohexyl)amino)nicotinamide] has a pIC50 [1] of 9.00 and a pEC50 [2] of 7.30.
Compound `Cc1noc([C@H]2CC[C@H](Nc3cc(-c4ccc5cc(C#N)cnn45)ncc3C(=O)NC[C@@H](F)C(C)(C)O)CC2)n1` [Compound 45, 6-(3-cyanopyrrolo[1,2-b]pyridazin-7-yl)-N-((R)-2-fluoro-3-hydroxy-3-methylbutyl)-4-(((1r,4R)-4-(3-methyl-1,2,4-oxadiazol-5-yl)cyclohexyl)amino)nicotinamide] has a pIC50 [1] of 8.70 and a pEC50 [2] of 7.07.
`CC(C)(O)[C@H](F)CNC(=O)c1cnc(-c2ccc3cc(C#N)cnn23)cc1N[C@H]1CC[C@H](c2cc[nH]n2)CC1` [Compound 70, 4-(((1r,4R)-4-(1H-pyrazol-3-yl)cyclohexyl)amino)-6-(3-cyanopyrrolo[1,2-b]pyridazin-7-yl)-N-((R)-2-fluoro-3-hydroxy-3-methylbutyl)nicotinamide] showed a pIC50 [1] of 9.09.
`CC(C)(O)[C@H](F)CNC(=O)c1cnc(-c2ccc3cc(C#N)cnn23)cc1NC1CCC(c2cnn(CC(F)(F)F)c2)CC1` (stereo partly drawn) [Compound 6, (R)-6-(3-cyanopyrrolo[1,2-b]pyridazin-7-yl)-N-(2-fluoro-3-hydroxy-3-methylbutyl)-4-((4-(1-(2,2,2-trifluoroethyl)-1H-pyrazol-4-yl)cyclohexyl)amino)nicotinamide] gave a pEC50 [2] of 7.15.
For `CC(C)(O)[C@H](F)CNC(=O)c1cnc(-c2ccc3cc(C#N)cnn23)cc1N[C@H]1CC[C@H](c2cnn(C(F)F)n2)CC1` [Compound 75, 6-(3-cyanopyrrolo[1,2-b]pyridazin-7-yl)-4-(((1r,4R)-4-(2-(difluoromethyl)-2H-1,2,3-triazol-4-yl)cyclohexyl)amino)-N-((R)-2-fluoro-3-hydroxy-3-methylbutyl)nicotinamide], the pIC50 [1] was 9.06.
